Values of other authors as cited in patent publication US20090163510A1 (Bristol-Myers Squibb Company, priority 2005, published 2009).
Counter-ions that a name gives are not always drawn. Like-named read-outs stand apart in the source and are kept apart here.

System: CML
Conditions: CML patients, Kantarjian et al.

Cc1ccc(NC(=O)c2ccc(CN3CCN(C)CC3)cc2)cc1Nc1nccc(-c2cccnc2)n1 [imatinib, Imatinib mesylate]
estimated 2-year incidence of resistance (blastic phase): 80% | estimated 2-year incidence of resistance (chronic phase post-interferon failure): 10%
